In this experiment the test system is nude mice, LOX melanoma ip, survival T/C. The experiment can be described thus: NCI In Vivo Anticancer Drug Screen. Data for tumor model Human Amelanotic Melanoma (LOX) (intraperitoneal) in NU/NU BALB/C (nude) mice. The conditions noted are these: endpoint: median survival time, higher = longer survival. Here is the method:
The antitumor activity of compounds was measured in mice bearing transplantable tumors. Survival or tumor size were measured and the results are expressed as the measurement made in the treated group (T) divided by the measurement made in the vehicle treated control group (C). The tumor model used in this assay is Human Amelanotic Melanoma (LOX) (intraperitoneal) in NU/NU BALB/C (nude) mice

The mark [1] stands for this setting: dose: 30.0 mg/kg/injection, schedule: Q04DX003 (ip), vehicle: saline.
[2] abbreviates: dose: 37.5 mg/kg/injection, schedule: Q04DX003 (ip), vehicle: saline.
Where [3] appears, read: dose: 75.0 mg/kg/injection, schedule: Q04DX003 (ip), vehicle: saline.
Where [4] appears, read: dose: 150.0 mg/kg/injection, schedule: Q04DX003 (ip), vehicle: saline.
Setting [5] is: dose: 300.0 mg/kg/injection, schedule: Q04DX003 (ip), vehicle: saline.

SMILES strings stand for the structures. Several values for one entry are separate records, joined by “and”; a condition that tells them apart may be missing. Equal values may be shown once. Inconclusive results and toxic doses are left out.

Turning to `Cn1c(=S)sc2nc3ccccc3n2c1=S`, the T/C reads like this: (dose: 30.0 mg/kg/injection, schedule: Q04DX003 (ip), vehicle: saline with Tween-80) 122 % of control; (dose: 60.0 mg/kg/injection, schedule: Q04DX003 (ip), vehicle: saline with Tween-80) 100 % of control; (dose: 120.0 mg/kg/injection, schedule: Q04DX003 (ip), vehicle: saline with Tween-80) 104 % of control; (dose: 240.0 mg/kg/injection, schedule: Q04DX003 (ip), vehicle: saline with Tween-80) 108 % of control; (dose: 480.0 mg/kg/injection, schedule: Q04DX003 (ip), vehicle: saline with Tween-80) 94 % of control.

In the case of `Nc1ccn([C@@H]2C=C(CO)[C@@H](O)[C@H]2O)c(=O)n1`, the T/C (dose: 1.0 mg/kg/injection, schedule: Q01DX009 (ip), vehicle: saline) is 219 % of control.

As to `O=C(NNC(=O)c1cccc(C(=O)NNC(=O)c2ccc(Cl)c(Cl)c2)n1)c1ccc(Cl)c(Cl)c1`, the T/C was 103 % of control (dose: 25.0 mg/kg/injection, schedule: Q04DX003 (ip), vehicle: saline with Tween-80); 119 % of control (dose: 50.0 mg/kg/injection, schedule: Q04DX003 (ip), vehicle: saline with Tween-80); 104 % of control (dose: 75.0 mg/kg/injection, schedule: Q04DX003 (ip), vehicle: saline with Tween-80); 119 % of control (dose: 100.0 mg/kg/injection, schedule: Q04DX003 (ip), vehicle: saline with Tween-80); 110 % of control (dose: 150.0 mg/kg/injection, schedule: Q04DX003 (ip), vehicle: saline with Tween-80); 122 % of control (dose: 200.0 mg/kg/injection, schedule: Q04DX003 (ip), vehicle: saline with Tween-80). In addition, the T/C (dose: 300.0 mg/kg/injection, schedule: Q04DX003 (ip), vehicle: saline with Tween-80) was 204 % of control; the T/C (dose: 400.0 mg/kg/injection, schedule: Q04DX003 (ip), vehicle: saline with Tween-80) was 116 % of control; the T/C (dose: 600.0 mg/kg/injection, schedule: Q04DX003 (ip), vehicle: saline with Tween-80) is 167 % of control; the T/C (dose: 1200.0 mg/kg/injection, schedule: Q04DX003 (ip), vehicle: saline with Tween-80) was 164 % of control.

As to `COc1cc2c(cc1OC)[C@@H]1C(=O)c3ccc4c(c3O[C@@H]1CO2)C[C@H](C(C)C)O4`, the T/C by setting is: (dose: 18.75 mg/kg/injection, schedule: Q04DX003 (ip), vehicle: Klucel (hydroxypropylcellulose) (HPC)) 113 % of control; (dose: 37.5 mg/kg/injection, schedule: Q04DX003 (ip), vehicle: Klucel (hydroxypropylcellulose) (HPC)) 110 % of control.

Regarding `CCCSc1nc(COC(=O)NC)c(COC(=O)NC)n1C`, the T/C by setting is: under setting [1], 113 % of control; (dose: 60.0 mg/kg/injection, schedule: Q04DX003 (ip), vehicle: saline) 110 % of control; (dose: 120.0 mg/kg/injection, schedule: Q04DX003 (ip), vehicle: saline) 90 % of control; (dose: 240.0 mg/kg/injection, schedule: Q04DX003 (ip), vehicle: saline) 98 % of control.

As to `O=S(=O)(O)c1cc(N=C=S)ccc1/C=C/c1ccc(N=C=S)cc1S(=O)(=O)O`, the T/C by setting is: (dose: 3.75 mg/kg/injection, schedule: Q04DX003 (ip), vehicle: saline) 103 % of control; (dose: 7.5 mg/kg/injection, schedule: Q04DX003 (ip), vehicle: saline) 104 % of control; (dose: 15.0 mg/kg/injection, schedule: Q04DX003 (ip), vehicle: saline) 90 % of control; under setting [1], 94 % of control.

As to `Nc1ccn([C@@H](C=O)C[C@@H](C=O)CO)c(=O)n1`, the T/C by setting is: (dose: 18.75 mg/kg/injection, schedule: Q04DX003 (ip), vehicle: saline) 105 % of control; under setting [2], 107 % of control; under setting [3], 103 % of control; under setting [4], 103 % of control; under setting [5], 102 % of control.

In the case of `CC1(O)C=CC(=O)C=C1`, the T/C by setting is: (dose: 6.25 mg/kg/injection, schedule: Q04DX003 (ip), vehicle: water) 108 % of control; (dose: 12.5 mg/kg/injection, schedule: Q04DX003 (ip), vehicle: water) 101 % of control; (dose: 25.0 mg/kg/injection, schedule: Q04DX003 (ip), vehicle: water) 105 % of control; (dose: 50.0 mg/kg/injection, schedule: Q04DX003 (ip), vehicle: water) 111 % of control.

`CC#CCOCC(O)CCl` (stereo unspecified): the T/C was 97 % of control under setting [2]; 99 % of control under setting [3]; 102 % of control under setting [4]; 106 % of control under setting [5]; 110 % of control (dose: 600.0 mg/kg/injection, schedule: Q04DX003 (ip), vehicle: saline).

In the case of `CCOC(=O)/C=C/C(=O)N1CCN(C(=O)/C=C/C(=O)OCC)C(C)C1` (stereo unspecified), the T/C was 117 % of control (dose: 75.0 mg/kg/injection, schedule: Q04DX003 (ip), vehicle: Klucel (hydroxypropylcellulose) (HPC)); 109 % of control (dose: 150.0 mg/kg/injection, schedule: Q04DX003 (ip), vehicle: Klucel (hydroxypropylcellulose) (HPC)); 108 % of control (dose: 300.0 mg/kg/injection, schedule: Q04DX003 (ip), vehicle: Klucel (hydroxypropylcellulose) (HPC)); 116 % of control (dose: 600.0 mg/kg/injection, schedule: Q04DX003 (ip), vehicle: Klucel (hydroxypropylcellulose) (HPC)).

As for `O=C(CN1CCOCC1)Nc1nc(-c2ccc(Cl)cc2)cs1`, the T/C runs as follows: (dose: 75.0 mg/kg/injection, schedule: Q04DX003 (ip), vehicle: DMSO) 119 % of control; (dose: 150.0 mg/kg/injection, schedule: Q04DX003 (ip), vehicle: DMSO) 112 % of control; (dose: 300.0 mg/kg/injection, schedule: Q04DX003 (ip), vehicle: DMSO) 88 % of control; (dose: 600.0 mg/kg/injection, schedule: Q04DX003 (ip), vehicle: DMSO) 95 % of control; (dose: 1200.0 mg/kg/injection, schedule: Q04DX003 (ip), vehicle: DMSO) 92 % of control.

For `CN(Cc1cnc2nc(N)nc(N)c2n1)c1ccc(C(=O)N[C@@H](CCC(=O)O)C(=O)O)cc1`, the T/C by setting is: (dose: 0.38 mg/kg/injection, schedule: Q01DX015 (ip), vehicle: sodium bicarbonate) 90 % of control; (dose: 0.75 mg/kg/injection, schedule: Q01DX005 (ip), vehicle: sodium bicarbonate) 90 % of control; (dose: 1.5 mg/kg/injection, schedule: Q01DX005 (ip), vehicle: sodium bicarbonate) 113 % of control; (dose: 1.5 mg/kg/injection, schedule: Q01DX015 (ip), vehicle: sodium bicarbonate) 95 % of control; (dose: 3.0 mg/kg/injection, schedule: Q01DX005 (ip), vehicle: sodium bicarbonate) 112 % of control; (dose: 3.0 mg/kg/injection, schedule: Q01DX015 (ip), vehicle: sodium bicarbonate) 102 % of control. Moreover, the T/C is, setting by setting: (dose: 6.0 mg/kg/injection, schedule: Q01DX005 (ip), vehicle: sodium bicarbonate) 112 % of control; (dose: 10.0 mg/kg/injection, schedule: Q04DX003 (ip), vehicle: sodium bicarbonate) 107 % of control; (dose: 12.0 mg/kg/injection, schedule: Q01DX005 (ip), vehicle: sodium bicarbonate) 107 % of control; (dose: 12.0 mg/kg/injection, schedule: Q04DX003 (ip), vehicle: sodium bicarbonate) 105 % of control and 112 % of control; (dose: 18.0 mg/kg/injection, schedule: Q04DX003 (ip), vehicle: sodium bicarbonate) 103 % of control and 101 % of control; (dose: 20.0 mg/kg/injection, schedule: Q04DX003 (ip), vehicle: sodium bicarbonate) 102 % of control. The T/C is 107 % of control (dose: 25.0 mg/kg/injection, schedule: Q01DX001 (ip), vehicle: sodium bicarbonate); 105 % of control and 112 % of control (dose: 27.0 mg/kg/injection, schedule: Q04DX003 (ip), vehicle: sodium bicarbonate); 113 % of control (dose: 40.0 mg/kg/injection, schedule: Q04DX003 (ip), vehicle: sodium bicarbonate); 106 % of control (dose: 50.0 mg/kg/injection, schedule: Q01DX001 (ip), vehicle: sodium bicarbonate); 103 % of control (dose: 100.0 mg/kg/injection, schedule: Q01DX001 (ip), vehicle: sodium bicarbonate); 121 % of control (dose: 200.0 mg/kg/injection, schedule: Q01DX001 (ip), vehicle: sodium bicarbonate).

For `CCOC(=O)Nc1cc2c(c(N)n1)N=C(c1ccccc1)CN2`, the T/C is 103 % of control (dose: 0.94 mg/kg/injection, schedule: Q04DX003 (ip), vehicle: saline with Tween-80); 107 % of control (dose: 1.88 mg/kg/injection, schedule: Q04DX003 (ip), vehicle: saline with Tween-80); 119 % of control (dose: 3.75 mg/kg/injection, schedule: Q04DX003 (ip), vehicle: saline with Tween-80); 121 % of control (dose: 7.5 mg/kg/injection, schedule: Q04DX003 (ip), vehicle: saline with Tween-80).

These data come from PubChem BioAssay AID280 (DTP/NCI, 2004).
